Experiments:
[1] = test system: Haemophilus influenzae serotype b; test: PRP production in liquid casein hydrolysate (HAC) medium with increasing hemin (sandwich ELISA on supernatant); assay type: cell-based; details: for Mean PRP / PRP in mg/l Assay 1 / PRP in mg/l Assay 2: HAC medium, 16 h
Description: (§1) The production of PRP obtained after 16 hours of bacterial culture in liquid plant peptones-based culture media in which the heme source was either hemin or protoporphyrin IX of animal origin (porcine protoporphyrin) in disodium salt form, or protoporphyrin IX of purely synthetic origin in disodium salt form was compared. The hemin and protoporphyrin IX concentration ranges in the culture media varied from about 0.010 g/l to about 2 g/l so as to obtain PRP titration curves as a function of the heme source tested and as a function of the plant peptone tested. An enzymatic hydrolysate of garden pea peptone provided by Kerry (Hy pea 7404) and a wheat peptone provided by Organotechnie (19559) were tested at a concentration in the culture medium equivalent to 0.87 g/l of protein nitrogen. By reference to the current methods for the production of PRP, PRP production was also measured in a medium that contains a peptone of animal origin, such as casein hydrolysate (HAC) provided by Solabia at a concentration in the medium equivalent to 0.87 g/l with increased concentrations of hemin (see table III).
(§2) 1.1) Preparation of the Media • 1.1.1. Stock solution of β-NAD (Fluka) at 1 g/l in water which was ultrafiltered and then sterilized by filtration through 0.22 μm. • 1.1.2. Stock solution of hemin (Sigma) at 0.25 g/l in water was ultrafiltered, comprising 5 ml of 25% aqueous ammonia (Cooper) to aid dissolution. The stock solution was sterilized by filtration through 0.22 μm. • 1.1.3. Stock solution of porcine protoporphyrin IX (Sigma) at 0.25 g/l in ultrafiltered water comprising 5 ml of 25% aqueous ammonia (Cooper) in order to facilitate the dissolution. The stock solution was sterilized by filtration through 0.22 μm. • 1.1.4. Stock solution of synthetic protoporphyrin IX at 0.25 g/l in ultrafiltered water comprising 5 ml of 25% aqueous ammonia (Cooper) in order to facilitate the dissolution. The stock solution was also heated to 80° C. in a water bath with stirring in order to complete the dissolution before being sterilized by filtration through 0.22 μm. The protoporphyrin IX, in disodium salt form, was synthesized according to the method described in the U.S. provisional patent application Ser. No. 12/057,574, filed Mar. 28, 2008 and application Ser. No. 60/943,735 and filed on Jun. 13, 2007 using the steps which are described in scheme 2. • The stock solutions of hemin and protoporphyrin IX were checked for their respective contents of active compounds after sterilizing filtration. The protoporphyrin IX and hemin contents were determined by Reversed Phase High Performance Liquid Chromatography (RP-HPLC). The chromatographic chain comprises a twin head pump module allowing the formation of a binary gradient, a programmable automatic injector, a diode array UV detector and a chromatographic column of the type Synergi 4 μm, Polar RP-80A (150×4.6) mm, ref 00F-4336-E0, Phenomenex. • The stock solution of hemin (Sigma) to be checked after filtration was diluted ⅓ in distilled water. The stock solutions of porcine protoporphyrin IX (Sigma) and of synthetic protoporphyrin IX to be checked after filtration were diluted ¼ in distilled water. In parallel, a calibration series was prepared in ammoniated water ranging from 0.025 g/l to 0.125 g/l of protoporphyrin IX from porcine protoporphyrin IX from Sigma (ref: 25838-5) and a calibration series ranging from 0.050 g/l to 0.150 g/l of hemin from hemin from Sigma (ref: H5533-256). The samples to be checked and the various solutions of the calibration series were injected in a volume of 20 μl (for the hemin solutions and samples) and of 5 μl (for the protoporphyrin IX solutions and samples). The initial mobile phase consisting of a volume for volume mixture of acetonitrile and 10 mM KH2PO4 pH 2.5 is set at a flow rate of 1 ml/min. A discontinuous gradient was then produced from this mobile phase in order to separate the molecules of interest which are detected at a wavelength of 400 nm. […]

[2] = test system: Haemophilus influenzae serotype b; test: PRP production in liquid wheat peptone-based culture medium as a function of heme source (sandwich ELISA on supernatant); assay type: cell-based; details: for Mean PRP / PRP in mg/l Assay 1 / PRP in mg/l Assay 2: wheat medium, 16 h
Description: as §1, §2

SMILES: C=CC1=C(C)c2cc3[n-]c(cc4nc(cc5[n-]c(cc1n2)c(C)c5CCC(=O)O)C(CCC(=O)O)=C4C)c(C)c3C=C.[Cl-].[Fe+3] [Hemin, hemin, reference compound]
- Mean PRP ([1]; hemin 11.8 μg/l): 16.8 mg/L
- PRP in mg/l Assay 1 ([1]; hemin 11.8 μg/l): 18.9 mg/L
- PRP in mg/l Assay 2 ([1]; hemin 11.8 μg/l): 14.7 mg/L
- Mean PRP ([1]; hemin 59 μg/l): 80.2 mg/L
- PRP in mg/l Assay 1 ([1]; hemin 59 μg/l): 82.7 mg/L
- PRP in mg/l Assay 2 ([1]; hemin 59 μg/l): 77.7 mg/L
- Mean PRP ([1]; hemin 118 μg/l): 199.5 mg/L
- PRP in mg/l Assay 1 ([1]; hemin 118 μg/l): 183 mg/L
- PRP in mg/l Assay 2 ([1]; hemin 118 μg/l): 216 mg/L
- Mean PRP ([1]; hemin 295 μg/l): 314.5 mg/L
- PRP in mg/l Assay 1 ([1]; hemin 295 μg/l): 325 mg/L
- PRP in mg/l Assay 2 ([1]; hemin 295 μg/l): 304 mg/L
- Mean PRP ([1]; hemin 590 μg/l): 410.5 mg/L
- PRP in mg/l Assay 1 ([1]; hemin 590 μg/l): 381 mg/L
- PRP in mg/l Assay 2 ([1]; hemin 590 μg/l): 440 mg/L
- Mean PRP ([1]; hemin 1180 μg/l): 414.5 mg/L
- PRP in mg/l Assay 1 ([1]; hemin 1180 μg/l): 424 mg/L
- PRP in mg/l Assay 2 ([1]; hemin 1180 μg/l): 405 mg/L
- Mean PRP ([1]; hemin 1770 μg/l): 461.5 mg/L
- PRP in mg/l Assay 1 ([1]; hemin 1770 μg/l): 404 mg/L
- PRP in mg/l Assay 2 ([1]; hemin 1770 μg/l): 519 mg/L
- Mean PRP ([1]; hemin 2360 μg/l): 464.5 mg/L
- PRP in mg/l Assay 1 ([1]; hemin 2360 μg/l): 439 mg/L
- PRP in mg/l Assay 2 ([1]; hemin 2360 μg/l): 490 mg/L
- hemin concentration to obtain about 400 mg/l of PRP ([1]; casein hydrolysate and hemin-based medium): at least 500 μg/l
- Mean PRP ([2]; hemin 11.8 μg/l): 5.3 mg/L
- PRP in mg/l Assay 1 ([2]; hemin 11.8 μg/l): 4.98 mg/L
- PRP in mg/l Assay 2 ([2]; hemin 11.8 μg/l): 5.61 mg/L
- Mean PRP ([2]; hemin 59 μg/l): 13.35 mg/L
- PRP in mg/l Assay 1 ([2]; hemin 59 μg/l): 13 mg/L
- PRP in mg/l Assay 2 ([2]; hemin 59 μg/l): 13.7 mg/L
- Mean PRP ([2]; hemin 118 μg/l): 17.60 mg/L
- PRP in mg/l Assay 1 ([2]; hemin 118 μg/l): 17.7 mg/L
- PRP in mg/l Assay 2 ([2]; hemin 118 μg/l): 17.5 mg/L
- Mean PRP ([2]; hemin 295 μg/l): 32.75 mg/L
- PRP in mg/l Assay 1 ([2]; hemin 295 μg/l): 35.3 mg/L
- PRP in mg/l Assay 2 ([2]; hemin 295 μg/l): 30.2 mg/L
- Mean PRP ([2]; hemin 590 μg/l): 72.4 mg/L
- PRP in mg/l Assay 1 ([2]; hemin 590 μg/l): 71.4 mg/L
- PRP in mg/l Assay 2 ([2]; hemin 590 μg/l): 73.4 mg/L
- Mean PRP ([2]; hemin 1180 μg/l): 291.5 mg/L
- PRP in mg/l Assay 1 ([2]; hemin 1180 μg/l): 327 mg/L
- PRP in mg/l Assay 2 ([2]; hemin 1180 μg/l): 256 mg/L
- Mean PRP ([2]; hemin 1770 μg/l): 466.5 mg/L
- PRP in mg/l Assay 1 ([2]; hemin 1770 μg/l): 487 mg/L
- PRP in mg/l Assay 2 ([2]; hemin 1770 μg/l): 446 mg/L
- Mean PRP ([2]; hemin 2360 μg/l): 495.5 mg/L
- PRP in mg/l Assay 1 ([2]; hemin 2360 μg/l): 487 mg/L
- PRP in mg/l Assay 2 ([2]; hemin 2360 μg/l): 504 mg/L
- heme source concentration required for optimum / equivalent PRP production ([2]; wheat peptone medium (FIG. 2)): about 1500 μg/l
